Earlier results as cited in patent publication US4761398A, “Method of inducing birds to molt” (Embrex, Inc., priority 1986, dated 1988).
Where no end group is shown, it is not given here.

molecular target: T1, LHRH receptor (Homo sapiens, UniProt P30968); conditions: literature review; cited from earlier work
T1 sequence (P30968 1-328): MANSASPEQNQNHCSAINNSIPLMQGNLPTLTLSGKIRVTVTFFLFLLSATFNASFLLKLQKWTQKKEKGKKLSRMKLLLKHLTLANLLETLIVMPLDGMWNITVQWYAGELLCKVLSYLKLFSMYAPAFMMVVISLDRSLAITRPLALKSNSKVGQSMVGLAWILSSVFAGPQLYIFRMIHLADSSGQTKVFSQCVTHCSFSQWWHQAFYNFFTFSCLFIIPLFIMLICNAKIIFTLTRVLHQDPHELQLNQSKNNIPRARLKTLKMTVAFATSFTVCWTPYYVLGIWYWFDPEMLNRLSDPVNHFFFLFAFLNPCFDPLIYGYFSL

Substance | antagonistic activity | agonistic activity of antagonist analogs
Leu^3 -LHRH (QHLSYGLRPG; ends and bridges not checked; UniProt P01148 24-33, looked up, variant W3L) | some antagonistic activity | 
[desHis^2, D-Ala^6 ] LHRH | found to have antagonistic activity | 
[desHis^2, D-Phe^6 ]LHRH | increased antagonistic activity | 
[desHis^2, D-Ala^6, desGly^10 ] LHRHEA | found to have antagonistic activity | showed some agonistic activity
[desHis^2, Leu^3, D-Ala^6, desGly^10 ] LHRHEA | found to have antagonistic activity | showed some agonistic activity
[desHis^2, desGly^10 ] LHRHEA | significant antagonistic activity | 
[desHis^2, Leu^3, desGly^10 ] LHRHEA | found to have antagonistic activity | 

molecular target: T1, LHRH receptor; conditions: 6-substituted analogs, Nestor et al.; cited from earlier work

Substance | potency relative to LHRH
[D-ptf^6 ]LHRH | more potent than LHRH
[D-Cha^6 ]LHRH | more potent than LHRH
[D-Trp^6, Pro^9 -NHEt]LHRH | more potent than LHRH
[D-Tmo^6 ]LHRH | more potent than LHRH
[D-Tmp^6 ]LHRH | more potent than LHRH
[D-Nal(1)^6 ]LHRH | more potent than LHRH
[D-Dca^6 ]LHRH | more potent than LHRH
[D-Mtf^6 ]LHRH | more potent than LHRH
[D-Pfp^6 ]LHRH | more potent than LHRH
[D-Nal(2)^6 ]LHRH | more potent than LHRH

same assay, conditions: Nestor et al.; cited from earlier work

Substance | agonistic activity in words
[D-Nal(2)^6 ], aza-Gly^10 ]LHRH | one of the most potent LHRH agonists known
[D-Dca^6 ]LHRH | activity dropped off
